What was measured:
[1] = target: T1, CYP2C19 (Homo sapiens, UniProt P33261); assay: CYP2C19 inhibition in pooled human liver microsomes (S-mephenytoin 4-hydroxylation); type: in vitro ADME; details: CEP 100 μM, pooled HLMs
T1 construct: from tissue; host or cells: pooled human liver microsomes
Experimental: (§1) Marker reactions of eight CYP isoforms were examined, and apparent Km values were estimated to characterize the pooled HLMs. All incubations were performed in triplicate, and the mean values were utilized. The typical incubation systems contained 100 mM potassium phosphate buffer (pH 7.4), NADPH generating system (1 mM NADP^+, 10 mM glucose-6-phosphate, 1 U/mL of glucose-6-phosphate dehydrogenase and 4 mM MgCl2), the appropriate concentration of HLMs, a corresponding probe substrate and hispidulin (or positive inhibitor for different probe reactions) in a final volume of 200 μL.
(§2) There was a 3-min preincubation period (at 37 °C) before the reaction was initiated by adding an NADPH-generating system. The reaction was terminated by adding a 100 μL acetonitrile (10% trichloroacetic acid for CYP2A6) internal standard mix, and the solution was placed on ice. The mixture was centrifuged at 12,000 rpm for 10 min, and an aliquot (50 μL) of supernatant was transferred for HPLC analysis. The instrument used in this study was Agilent 1260 series instrument with DAD and FLD detector, and the quantitative assay for the corresponding metabolites was performed as previously reported (Lang et al. [2016]; Zhang et al. [2017]). The quantitative analysis of metabolites can represent the activity of corresponding CYPs.

[2] = set-up: method as in Jiang et al. [2016]; details: rats, orally administered CEP 10 mg/kg; ref Jiang et al. [2016]; cited from earlier work
[3] = target: T2, CYP2E1 (Homo sapiens, UniProt P05181); assay: CYP2E1 inhibition in pooled human liver microsomes (chlorzoxazone 6-hydroxylation); type: in vitro ADME
T2 construct: CYP2E1 catalysed reactions (chlorzoxazone 6-hydroxylation) in pooled HLM; from tissue; host or cells: pooled human liver microsomes
Experimental: as §1, §2
(§3) The enzyme kinetic parameters for the probe reaction were estimated from the best fit line, using least-squares linear regression of the inverse substrate concentration versus the inverse velocity (Lineweaver-Burk plots), and the mean values were used to calculate Vmax and Km. Inhibition data from the experiments that were conducted using multiple compound concentrations were represented by Dixon plots, and inhibition constant (Ki) values were calculated using non-linear regression according to the following equation: v=(VmaxS/Km(1+I/Ki)+S) where I is the concentration of the compound, Ki is the inhibition constant, S is the concentration of the substrate, and Km is the substrate concentration at half the maximum velocity (Vmax) of the reaction. The mechanism of the inhibition was inspected using the Lineweaver–Burk plots and the enzyme inhibition models. The data comparison was performed using Student’s t-test and performed using IBM SPSS statistics version 20 (IBM SPSS Inc., Armonk, NY).

[4] = target: T3, CYP2D6 (Homo sapiens, UniProt P10635); assay: CYP2D6 inhibition in pooled human liver microsomes (dextromethorphan O-demethylation); type: in vitro ADME; details: CEP 100 μM, pooled HLMs
T3 construct: from tissue; host or cells: pooled human liver microsomes
Experimental: as §1, §2

[5] = target: T4, CYP3A4 (Homo sapiens, UniProt P08684); assay: CYP3A4 inhibition in pooled human liver microsomes (testosterone 6β-hydroxylation); type: in vitro ADME
T4 construct: CYP3A4 catalysed reactions (testosterone 6β-hydroxylation) in pooled HLM; from tissue; host or cells: pooled human liver microsomes
Experimental: All incubations were performed in triplicate, and the mean values were utilized.
The reaction was terminated by adding a 100 μL acetonitrile (10% trichloroacetic acid for CYP2A6) internal standard mix, and the solution was placed on ice. The mixture was centrifuged at 12,000 rpm for 10 min, and an aliquot (50 μL) of supernatant was transferred for HPLC analysis.
The enzyme kinetic parameters for the probe reaction were estimated from the best fit line, using least-squares linear regression of the inverse substrate concentration versus the inverse velocity (Lineweaver-Burk plots), and the mean values were used to calculate Vmax and Km. […] The mechanism of the inhibition was inspected using the Lineweaver–Burk plots and the enzyme inhibition models.

[6] = target: T5, CYP2C8 (Homo sapiens, UniProt P10632); assay: CYP2C8 inhibition in pooled human liver microsomes (paclitaxel 6α-hydroxylation); type: in vitro ADME; details: CEP 100 μM, pooled HLMs
T5 construct: from tissue; host or cells: pooled human liver microsomes
T5 sequence (P10632 1-490): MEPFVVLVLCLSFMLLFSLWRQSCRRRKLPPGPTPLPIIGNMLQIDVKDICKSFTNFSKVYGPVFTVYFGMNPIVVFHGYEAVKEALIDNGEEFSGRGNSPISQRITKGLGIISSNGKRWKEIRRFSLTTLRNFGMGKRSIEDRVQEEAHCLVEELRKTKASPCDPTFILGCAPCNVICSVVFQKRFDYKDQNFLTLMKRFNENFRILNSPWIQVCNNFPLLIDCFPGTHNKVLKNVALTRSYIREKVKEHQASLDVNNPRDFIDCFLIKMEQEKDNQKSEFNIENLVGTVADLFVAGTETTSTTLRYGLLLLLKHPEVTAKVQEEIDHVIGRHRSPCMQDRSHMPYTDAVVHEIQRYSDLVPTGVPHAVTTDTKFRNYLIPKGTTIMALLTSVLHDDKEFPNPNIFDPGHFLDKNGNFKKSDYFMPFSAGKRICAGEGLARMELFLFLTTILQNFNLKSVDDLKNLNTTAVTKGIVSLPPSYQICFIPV
Experimental: as §1, §2

[7] = target: T6, CYP1A2 (Homo sapiens, UniProt P05177); assay: CYP1A2 inhibition in pooled human liver microsomes (phenacetin O-deethylation); type: in vitro ADME; details: CEP 100 μM, pooled HLMs
T6 construct: from tissue; host or cells: pooled human liver microsomes
T6 sequence (P05177 1-516): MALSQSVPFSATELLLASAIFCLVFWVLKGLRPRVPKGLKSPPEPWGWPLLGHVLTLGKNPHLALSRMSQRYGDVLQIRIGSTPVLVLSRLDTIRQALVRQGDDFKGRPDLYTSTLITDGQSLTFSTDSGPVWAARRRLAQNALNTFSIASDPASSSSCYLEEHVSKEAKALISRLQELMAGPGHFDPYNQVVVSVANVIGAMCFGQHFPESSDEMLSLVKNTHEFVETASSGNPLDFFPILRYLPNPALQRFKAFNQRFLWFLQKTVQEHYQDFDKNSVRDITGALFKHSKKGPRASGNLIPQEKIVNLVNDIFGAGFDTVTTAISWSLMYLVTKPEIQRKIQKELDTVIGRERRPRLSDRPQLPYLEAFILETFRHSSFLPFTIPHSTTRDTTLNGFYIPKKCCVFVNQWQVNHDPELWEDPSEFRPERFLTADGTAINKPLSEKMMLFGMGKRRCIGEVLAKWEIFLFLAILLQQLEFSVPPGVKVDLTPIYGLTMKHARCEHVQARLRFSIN
Experimental: as §1, §2

[8] = target: T7, CYP2C9 (Homo sapiens, UniProt P11712); assay: CYP2C9 inhibition in pooled human liver microsomes (diclofenac 4′-hydroxylation); type: in vitro ADME
T7 construct: from tissue; host or cells: pooled human liver microsomes
Experimental: as §1, §2, §3

[9] = target: T7, CYP2C9; assay: Time-dependent inhibition of CYP2C9 in human liver microsomes; type: in vitro ADME; details: CEP 20 μM, pre-incubation with HLM 30 min, incubation 0–30 min
Experimental: (§4) After incubation, an aliquot (20 μL) was transferred to another incubation tube (final volume 200 μL) containing an NADPH-generating system and probe substrates whose final concentrations were approximate to Km. Then, further incubations were performed to measure the residual activity. After being incubated for 0, 5, 10, 15, and 30 min, the reactions were terminated by adding a 100 μL acetonitrile internal standard mix and then placed on ice; the corresponding metabolites were determined by HPLC.

[10] = target: T4, CYP3A4; assay: Time-dependent inhibition of CYP3A4 in human liver microsomes; type: in vitro ADME
Experimental: as §4

[11] = target: T2, CYP2E1; assay: Time-dependent inhibition of CYP2E1 in human liver microsomes; type: in vitro ADME; details: CEP 20 μM, pre-incubation with HLM 30 min, incubation 0–30 min
Experimental: as §4

[12] = target: T8, CYP2A6 (Homo sapiens, UniProt P11509); assay: CYP2A6 inhibition in pooled human liver microsomes (coumarin 7-hydroxylation); type: in vitro ADME; details: CEP 100 μM, pooled HLMs
T8 construct: from tissue; host or cells: pooled human liver microsomes
T8 sequence (P11509 1-494): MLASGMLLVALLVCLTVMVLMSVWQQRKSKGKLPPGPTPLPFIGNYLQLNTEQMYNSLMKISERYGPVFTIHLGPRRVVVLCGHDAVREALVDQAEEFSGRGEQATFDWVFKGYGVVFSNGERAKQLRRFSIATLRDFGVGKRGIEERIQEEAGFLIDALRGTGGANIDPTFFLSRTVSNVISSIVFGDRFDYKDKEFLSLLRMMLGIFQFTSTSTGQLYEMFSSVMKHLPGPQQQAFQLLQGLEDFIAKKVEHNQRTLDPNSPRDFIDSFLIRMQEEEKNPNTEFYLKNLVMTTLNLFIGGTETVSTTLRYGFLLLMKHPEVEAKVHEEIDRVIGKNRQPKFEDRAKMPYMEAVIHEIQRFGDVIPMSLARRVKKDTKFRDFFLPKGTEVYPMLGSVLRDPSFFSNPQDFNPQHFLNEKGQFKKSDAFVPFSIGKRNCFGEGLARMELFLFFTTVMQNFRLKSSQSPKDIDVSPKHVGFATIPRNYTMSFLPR
Experimental: as §1, §2

T2 sequence (P05181 whole entry): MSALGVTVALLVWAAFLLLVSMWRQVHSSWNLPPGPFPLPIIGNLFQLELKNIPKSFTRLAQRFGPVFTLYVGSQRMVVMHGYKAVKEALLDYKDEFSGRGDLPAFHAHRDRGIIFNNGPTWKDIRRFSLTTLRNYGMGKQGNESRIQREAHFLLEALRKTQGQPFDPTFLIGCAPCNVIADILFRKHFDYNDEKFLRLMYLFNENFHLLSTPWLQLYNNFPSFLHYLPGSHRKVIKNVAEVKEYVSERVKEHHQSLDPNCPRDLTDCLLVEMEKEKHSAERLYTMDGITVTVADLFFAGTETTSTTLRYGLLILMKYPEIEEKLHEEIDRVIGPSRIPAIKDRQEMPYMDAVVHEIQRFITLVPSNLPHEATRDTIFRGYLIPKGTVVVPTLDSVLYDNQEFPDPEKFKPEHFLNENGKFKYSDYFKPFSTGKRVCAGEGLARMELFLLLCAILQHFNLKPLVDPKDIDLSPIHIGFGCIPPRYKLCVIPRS
T7 sequence (P11712 whole entry): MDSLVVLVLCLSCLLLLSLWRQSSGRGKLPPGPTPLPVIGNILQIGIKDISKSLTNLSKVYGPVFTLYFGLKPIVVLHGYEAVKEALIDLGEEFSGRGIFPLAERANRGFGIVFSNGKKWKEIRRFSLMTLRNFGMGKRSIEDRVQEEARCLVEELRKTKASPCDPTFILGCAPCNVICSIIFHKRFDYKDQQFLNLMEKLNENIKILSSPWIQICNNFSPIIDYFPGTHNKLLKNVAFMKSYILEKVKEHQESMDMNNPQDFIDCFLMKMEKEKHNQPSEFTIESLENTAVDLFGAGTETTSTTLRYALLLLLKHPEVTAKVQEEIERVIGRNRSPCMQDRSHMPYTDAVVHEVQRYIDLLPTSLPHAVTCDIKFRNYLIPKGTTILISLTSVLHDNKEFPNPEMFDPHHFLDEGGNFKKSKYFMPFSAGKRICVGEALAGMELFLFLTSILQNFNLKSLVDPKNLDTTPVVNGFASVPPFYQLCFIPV
T4 sequence (P08684 whole entry): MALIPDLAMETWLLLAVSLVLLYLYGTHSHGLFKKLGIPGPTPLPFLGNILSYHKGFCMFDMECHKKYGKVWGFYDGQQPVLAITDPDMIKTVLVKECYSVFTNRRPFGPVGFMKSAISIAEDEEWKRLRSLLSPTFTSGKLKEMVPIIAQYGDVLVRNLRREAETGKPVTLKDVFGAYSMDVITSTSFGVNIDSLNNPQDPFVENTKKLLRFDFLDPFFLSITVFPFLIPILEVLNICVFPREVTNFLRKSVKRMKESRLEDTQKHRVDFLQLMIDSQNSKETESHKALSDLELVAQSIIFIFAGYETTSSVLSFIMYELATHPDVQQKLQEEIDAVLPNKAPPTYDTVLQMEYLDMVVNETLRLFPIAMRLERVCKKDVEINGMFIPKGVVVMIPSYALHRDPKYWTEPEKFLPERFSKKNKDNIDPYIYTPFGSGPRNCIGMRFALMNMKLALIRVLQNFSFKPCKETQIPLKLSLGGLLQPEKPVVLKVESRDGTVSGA
T3 sequence (P10635 whole entry): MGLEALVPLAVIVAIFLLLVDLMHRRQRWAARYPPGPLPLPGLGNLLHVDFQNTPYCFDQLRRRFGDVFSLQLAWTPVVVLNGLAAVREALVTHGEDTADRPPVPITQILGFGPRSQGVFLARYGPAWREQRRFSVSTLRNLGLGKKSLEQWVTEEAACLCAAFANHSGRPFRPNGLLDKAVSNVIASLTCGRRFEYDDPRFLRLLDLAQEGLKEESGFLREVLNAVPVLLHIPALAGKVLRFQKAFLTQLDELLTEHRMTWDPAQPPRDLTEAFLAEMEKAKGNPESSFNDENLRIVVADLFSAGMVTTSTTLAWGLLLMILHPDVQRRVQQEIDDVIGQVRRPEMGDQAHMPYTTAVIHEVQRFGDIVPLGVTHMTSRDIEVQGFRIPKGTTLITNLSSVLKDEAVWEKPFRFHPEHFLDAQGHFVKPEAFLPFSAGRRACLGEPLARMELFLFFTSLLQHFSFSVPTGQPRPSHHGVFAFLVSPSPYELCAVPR
T1 sequence (P33261 whole entry): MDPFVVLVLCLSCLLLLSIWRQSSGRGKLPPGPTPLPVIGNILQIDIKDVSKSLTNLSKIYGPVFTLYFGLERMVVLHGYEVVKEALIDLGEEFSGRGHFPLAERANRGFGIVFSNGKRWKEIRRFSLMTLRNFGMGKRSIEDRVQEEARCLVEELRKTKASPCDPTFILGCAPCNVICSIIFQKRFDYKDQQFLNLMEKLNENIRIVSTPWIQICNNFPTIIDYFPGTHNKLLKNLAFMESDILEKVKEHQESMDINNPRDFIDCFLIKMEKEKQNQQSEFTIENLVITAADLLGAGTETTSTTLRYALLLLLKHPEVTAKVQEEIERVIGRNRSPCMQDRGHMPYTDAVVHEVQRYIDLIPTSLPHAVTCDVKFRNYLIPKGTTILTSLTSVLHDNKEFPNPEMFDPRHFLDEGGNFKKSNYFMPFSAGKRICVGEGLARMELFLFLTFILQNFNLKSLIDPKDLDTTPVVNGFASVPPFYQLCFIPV

Effect on CYP2C19 activity [1]: not affected | Ki [3]: 11.8 µM | activity at 100 μM ([3]; human, pooled human liver microsomes, pH 7.4, probe chlorzoxazone (6-hydroxylation), read-out: CYP2E1 activity, % of control activity): 23.6% | Inhibition manner on CYP2E1 (Lineweaver–Burk plots) ([3]; pooled HLMs): competitive | IC50 ([3]; pooled HLMs, chlorzoxazone 6-hydroxylation): 25.6 µM | Effect on CYP2D6 activity [4]: not affected | activity at 100 μM ([5]; human, pooled human liver microsomes, pH 7.4, probe testosterone (6β-hydroxylation), read-out: CYP3A4 activity, % of control activity): 12.6% | Inhibition manner on CYP3A4 (Lineweaver–Burk plots) ([5]; pooled HLMs): non-competitive | Effect on CYP2C8 activity [6]: not affected | Effect on CYP1A2 activity [7]: not affected | Ki [8]: 13.1 µM | activity at 100 μM ([8]; human, pooled human liver microsomes, pH 7.4, probe diclofenac (4′-hydroxylation), read-out: CYP2C9 activity, % of control activity): 18.1% | Inhibition manner on CYP2C9 (Lineweaver–Burk plots) ([8]; pooled HLMs): competitive | IC50 ([8]; pooled HLMs, diclofenac 4′-hydroxylation): 24.6 µM | Time-dependent change of CYP2C9 activity [9]: not affected | Time-dependent change of CYP3A4 activity ([10]; CEP 20 μM, pre-incubation with HLM 30 min, incubation 0–30 min): decreased with the incubation time | CYP3A4 inactivated each minute at a saturating concentration of CEP ([10]; HLM, from Kinact): about 5.8% | Time-dependent change of CYP2E1 activity [11]: not affected | Effect on CYP2A6 activity [12]: not affected
SMILES: COc1ccc2cc1Oc1ccc(cc1)C[C@H]1c3c(cc4c(c3Oc3cc5c(cc3OC)CCN(C)[C@@H]5C2)OCO4)CCN1C [CEP, Cepharanthine]
plasma Cmax [2]: approximately 0.05 μg/mL
